# From patent US11198695B2, “Fused ring derivative having MGAT-2 inhibitory activity” (Shionogi & Co., Ltd., priority 2017, dated 2021)
# Values joined by “and” are separate entries in the source; they are usually repeats but may differ in a detail not shown here. Equal values may be shown once. Read-outs that look alike come from different tables or passages of the source.
# How the values were obtained:
# recombinant human MGAT2 = recombinant human MGAT2 (Homo sapiens (Human), UniProt Q3SYC2); assay: Measurement of human MGAT2 inhibitory activity; format: biochemical
# Summary of the method: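 Membrane fraction of Sf9 cells expressing N-terminally Flag-tagged full-length human MGAT2, incubated 1 h at room temperature in 100 mmol/L phosphate pH 7.4 with 2 mmol/L DTT. The substrate solution held 30 μmol/L 2-oleoylglycerol and 10 μmol/L oleoyl-CoA. Diolein product was quantified by RapidFire ESI Q-TOF MS against diolein-d5 internal standard; % inhibition was set relative to with/without-enzyme controls.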
# [1] = Metabolism stability test; format: in vitro ADME; details: human liver microsomes, 30 minutes, 37° C., NADPH, 0.5 μmol/L of test compound
# Procedure: Using commercially available pooled human hepatic microsomes, the compound of the present invention was reacted for a constant time, a remaining rate was calculated by comparing a reacted sample and an unreacted sample, thereby, a degree of metabolism of the compound of the present invention in liver was assessed.
# A reaction was performed (oxidative reaction) at 37° C. for 0 minute or 30 minutes in the presence of 1 mmol/L NADPH in 0.2 mL of a buffer (50 mmol/L Tris-HCl pH 7.4, 150 mmol/L potassium chloride, 10 mmol/L magnesium chloride) containing 0.5 mg protein/mL of human liver microsomes. After the reaction, 50 μL of the reaction solution was added to 100 μL of a methanol/acetonitrile=1/1 (v/v) solution, mixed and centrifuged at 3000 rpm for 15 minutes. The compound of the present invention in the supernatant was quantified by LC/MS/MS, and a remaining amount of the compound of the present invention after the reaction was calculated, letting a compound amount at 0 minute reaction time to be 100%. (Result) Remaining rate was shown at 0.5 μmol/L of test compound.
# [2] = Solubility test (1% DMSO addition, pH 6.8 artificial intestinal juice); format: physicochemical; details: 16 hours at 25° C.; for solubility at 16 h: pH 6.8 artificial intestinal juice with 1% DMSO, kinetic from dmso stock
# Procedure: The solubility of the compound of the present invention was determined under 1% DMSO addition conditions. 10 mmol/L solution of the compound was prepared with DMSO, and 6 μL of the solution of the compound of the present invention was added to 594 μL of pH 6.8 artificial intestinal juice (118 mL of 0.2 mol/L NaOH test solution and water were added to 250 mL of 0.2 mol/L potassium dihydrogen phosphate test solution to reach 1000 mL). The mixture was left standing for 16 hours at 25° C., and the mixture was vacuum-filtered. The filtrate was two-fold diluted with methanol/water=1/1 (V/V), and the compound concentration in the filtrate was measured with HPLC or LC/MS/MS by the absolute calibration method.
# CYP2C19 = CYP2C19 (Homo sapiens (Human), UniProt P33261); assay: CYP inhibition test (mephenytoin 4'-hydroxylation); format: in vitro ADME; details: pooled human liver microsomes
# Description: (§1) Using commercially available pooled human hepatic microsome, and employing, as markers, 7-ethoxyresorufin O-deethylation (CYP1A2), tolbutamide methyl-hydroxylation (CYP2C9), mephenytoin 4′-hydroxylation (CYP2C19), dextromethorphan O-demethylation (CYP2D6), and terfenadine hydroxylation (CYP3A4) as typical substrate metabolism reactions of human main five CYP enzyme forms (CYP1A2, 2C9, 2C19, 2D6, 3A4), an inhibitory degree of each metabolite production amount by the compound of the present invention was assessed. […]
# (§2) As a reaction solution, each five kinds of substrates, human liver microsomes, or compound of the present invention in 50 mmol/L Hepes buffer were added to a 96-well plate at the composition as described above, and NADPH, as a cofactor was added to initiate metabolism reactions. […] After the centrifugation at 3000 rpm for 15 minutes, resorufin (CYP1A2 metabolite) in the supernatant was quantified by a fluorescent multilabel counter or LC/MS/MS, and tolbutamide hydroxide (CYP2C9 metabolite), mephenytoin 4′ hydroxide (CYP2C19 metabolite), dextrorphan (CYP2D6 metabolite), and terfenadine alcohol (CYP3A4 metabolite) were quantified by LC/MS/MS.
# (§3) Addition of only DMSO being a solvent dissolving a drug to a reaction system was adopted as a control (100%). Remaining activity (%) was calculated. […]
# CYP2C9 = CYP2C9 (Homo sapiens (Human), UniProt P11712); assay: CYP inhibition test (tolbutamide methyl-hydroxylation); format: in vitro ADME; details: pooled human liver microsomes
# Description: as §1, §2, §3
# CYP3A4 [3] = molecular target: T1, CYP3A4 (Homo sapiens (Human), UniProt P08684); assay: CYP3A4 (MDZ) MBI test; format: in vitro ADME; details: pooled human liver microsomes, preincubation 0 or 30 min
# Procedure: CYP3A4 (MDZ) MBI test is a test of investigating mechanism based inhibition (MBI) potential on CYP3A4 by the enhancement of inhibitory degree of a metabolic reaction caused by the compound of the present invention. CYP3A4 inhibition was evaluated using pooled human liver microsomes by 1-hydroxylation reaction of midazolam (MDZ) as a marker reaction. […]
# Pooled human liver microsomes and a solution of the compound of the present invention in K-Pi buffer (pH 7.4) as a pre-reaction solution were added to a 96-well plate at the composition of the pre-reaction. […] The plate on which each index reaction had been performed was centrifuged at 3000 rpm for 15 minutes, and thereafter 1-hydroxylated midazolam in the supernatant was quantified by LC/MS/MS.
# The sample adding DMSO as a solvent to a reaction system instead of a solution dissolving the compound of the present invention was adopted as a control (100%). Remaining activity (%) was calculated at each concentration of the compound of the present invention compared to a control, and IC value was calculated by reverse-presumption by a logistic model using a concentration and an inhibition rate. […]
# CYP3A4 [4] = molecular target: T1, CYP3A4; assay: CYP inhibition test (terfenadine hydroxylation); format: in vitro ADME; details: pooled human liver microsomes
# Description: as §1, §2, §3
# CYP2D6 = CYP2D6 (Homo sapiens (Human), UniProt P10635); assay: CYP inhibition test (dextromethorphan O-demethylation); format: in vitro ADME; details: pooled human liver microsomes
# Description: as §1, §2, §3
# CYP1A2 = CYP1A2 (Homo sapiens (Human), UniProt P05177); assay: CYP inhibition test (7-ethoxyresorufin O-deethylation); format: in vitro ADME; details: pooled human liver microsomes
# Description: as §1, §2, §3
# [5] = read-out: IC50 (concentration exhibiting 50% enzyme inhibition), Table 53
# [6] = read-out: IC50 (concentration exhibiting 50% enzyme inhibition), Table 52
# Sequence of recombinant human MGAT2 (Q3SYC2 whole entry): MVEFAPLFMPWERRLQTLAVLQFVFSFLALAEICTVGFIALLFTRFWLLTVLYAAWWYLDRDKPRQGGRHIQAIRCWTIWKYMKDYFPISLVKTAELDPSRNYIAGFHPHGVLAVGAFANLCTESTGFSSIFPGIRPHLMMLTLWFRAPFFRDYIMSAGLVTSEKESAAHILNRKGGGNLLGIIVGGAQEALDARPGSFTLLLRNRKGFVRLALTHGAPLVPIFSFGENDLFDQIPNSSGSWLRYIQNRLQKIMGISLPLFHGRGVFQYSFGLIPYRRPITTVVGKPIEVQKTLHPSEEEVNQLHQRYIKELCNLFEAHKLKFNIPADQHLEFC
# T1 sequence (P08684 whole entry): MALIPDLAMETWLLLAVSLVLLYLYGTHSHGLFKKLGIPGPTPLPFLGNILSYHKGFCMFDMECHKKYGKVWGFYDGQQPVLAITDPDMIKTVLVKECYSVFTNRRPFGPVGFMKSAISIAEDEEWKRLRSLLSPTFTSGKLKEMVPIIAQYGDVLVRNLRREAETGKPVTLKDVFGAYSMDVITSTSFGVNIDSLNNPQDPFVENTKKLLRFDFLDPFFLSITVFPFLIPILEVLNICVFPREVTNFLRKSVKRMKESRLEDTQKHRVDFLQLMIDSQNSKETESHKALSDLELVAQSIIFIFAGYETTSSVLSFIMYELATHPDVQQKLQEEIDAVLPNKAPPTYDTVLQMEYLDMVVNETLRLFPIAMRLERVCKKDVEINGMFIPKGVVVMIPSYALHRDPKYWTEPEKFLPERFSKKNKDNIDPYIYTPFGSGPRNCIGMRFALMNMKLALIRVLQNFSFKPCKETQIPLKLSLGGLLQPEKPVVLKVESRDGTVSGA
# Sequence of CYP1A2 (P05177 whole entry): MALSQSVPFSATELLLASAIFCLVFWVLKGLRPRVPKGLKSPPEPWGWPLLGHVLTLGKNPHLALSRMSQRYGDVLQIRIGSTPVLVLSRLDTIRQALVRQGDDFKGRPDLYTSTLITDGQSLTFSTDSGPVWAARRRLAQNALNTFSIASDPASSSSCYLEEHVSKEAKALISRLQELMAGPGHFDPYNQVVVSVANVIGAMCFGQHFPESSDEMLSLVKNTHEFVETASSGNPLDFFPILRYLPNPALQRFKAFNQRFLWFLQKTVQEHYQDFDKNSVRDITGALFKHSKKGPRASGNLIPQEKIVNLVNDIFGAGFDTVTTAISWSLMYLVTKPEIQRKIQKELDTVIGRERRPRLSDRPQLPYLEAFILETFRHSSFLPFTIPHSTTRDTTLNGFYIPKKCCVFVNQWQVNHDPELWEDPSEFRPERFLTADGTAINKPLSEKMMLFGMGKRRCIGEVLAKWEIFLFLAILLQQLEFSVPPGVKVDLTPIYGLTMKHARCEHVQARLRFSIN
# Sequence of CYP2C19 (P33261 whole entry): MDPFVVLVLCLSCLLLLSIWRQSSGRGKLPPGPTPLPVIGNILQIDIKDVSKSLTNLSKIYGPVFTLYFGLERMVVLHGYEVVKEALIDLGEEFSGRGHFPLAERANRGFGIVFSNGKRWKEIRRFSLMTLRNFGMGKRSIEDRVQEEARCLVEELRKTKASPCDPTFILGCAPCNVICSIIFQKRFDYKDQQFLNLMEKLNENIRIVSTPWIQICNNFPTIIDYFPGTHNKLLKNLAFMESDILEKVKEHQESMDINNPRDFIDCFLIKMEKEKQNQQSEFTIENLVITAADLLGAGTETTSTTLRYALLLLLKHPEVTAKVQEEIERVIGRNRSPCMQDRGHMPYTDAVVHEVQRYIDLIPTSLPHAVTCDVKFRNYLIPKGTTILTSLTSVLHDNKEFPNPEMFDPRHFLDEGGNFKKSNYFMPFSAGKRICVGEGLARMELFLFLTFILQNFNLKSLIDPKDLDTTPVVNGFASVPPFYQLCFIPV
# Sequence of CYP2C9 (P11712 whole entry): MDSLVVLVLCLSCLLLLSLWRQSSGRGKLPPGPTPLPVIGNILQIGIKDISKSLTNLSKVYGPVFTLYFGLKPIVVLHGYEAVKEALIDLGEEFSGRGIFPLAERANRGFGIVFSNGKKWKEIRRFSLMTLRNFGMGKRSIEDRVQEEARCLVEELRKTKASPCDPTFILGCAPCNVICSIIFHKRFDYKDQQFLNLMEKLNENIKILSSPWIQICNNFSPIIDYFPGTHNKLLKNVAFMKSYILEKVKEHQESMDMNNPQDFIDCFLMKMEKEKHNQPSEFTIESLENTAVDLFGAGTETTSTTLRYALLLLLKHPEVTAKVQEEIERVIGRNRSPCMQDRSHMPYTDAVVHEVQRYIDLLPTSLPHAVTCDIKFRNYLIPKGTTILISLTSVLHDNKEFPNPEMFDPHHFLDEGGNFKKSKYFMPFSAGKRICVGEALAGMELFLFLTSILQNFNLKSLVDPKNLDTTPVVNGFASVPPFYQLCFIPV
# Sequence of CYP2D6 (P10635 whole entry): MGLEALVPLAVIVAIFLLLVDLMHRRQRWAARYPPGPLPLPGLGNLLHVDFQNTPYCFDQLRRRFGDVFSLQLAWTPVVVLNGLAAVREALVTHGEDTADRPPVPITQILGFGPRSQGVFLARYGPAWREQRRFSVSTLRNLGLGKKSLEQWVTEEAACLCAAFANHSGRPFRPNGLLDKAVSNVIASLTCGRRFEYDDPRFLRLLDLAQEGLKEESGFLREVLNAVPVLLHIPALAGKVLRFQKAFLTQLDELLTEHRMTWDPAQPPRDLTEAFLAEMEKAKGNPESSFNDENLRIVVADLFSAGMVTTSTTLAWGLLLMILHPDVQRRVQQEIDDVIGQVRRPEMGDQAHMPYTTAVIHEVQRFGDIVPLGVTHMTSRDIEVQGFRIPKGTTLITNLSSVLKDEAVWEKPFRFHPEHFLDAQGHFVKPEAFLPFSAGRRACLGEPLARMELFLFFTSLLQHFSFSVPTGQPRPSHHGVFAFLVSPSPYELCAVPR
IC50 (recombinant human MGAT2; [5]),Remaining rate (%) [1] [%],solubility at 16 h [2] [µM],IC50 (recombinant human MGAT2; [6]) [nM],Structure (SMILES),other results
2.2 nM,98.2,> 50,–,"Cc1ccc(-n2nc3c(c2NC(=O)CS(C)(=N)=O)C(=O)N[C@@]2(CCc4cc(OCC(F)(F)F)ccc42)C3)nc1 (single isomer, unassigned) [II-276]",–
–,89,> 50,7,CS(=O)(=O)CC(=O)Nc1c2c(nn1-c1ccc(C#N)cn1)C[C@]1(CCc3cc(N4CC(F)(F)C4)ccc31)NC2=O [Compound I-67],–
–,89,> 50,3.3,CS(=O)(=O)CC(=O)Nc1c2c(nn1-c1ccc(C#N)cn1)C[C@@]1(CCc3cc(OCC(F)(F)F)ccc31)NC2=O [Compound I-167],–
–,100,> 50,5.1,CS(=O)(=O)CC(=O)Nc1c2c(nn1-c1ccc(C#N)cn1)C[C@](c1ccc(OCC(F)(F)F)cc1F)(C(F)(F)F)NC2=O [Compound I-170],–
–,94,> 50,5.6,O=C1N[C@@]2(CCOc3cc(OCCCC(F)(F)F)ccc32)Cc2nn(CCC3CC3)c(-c3nn[nH]n3)c21 [Compound I-200],–
–,95.6,> 50,–,Cc1ccc(-n2nc3c(c2NC(=O)CS(C)(=O)=O)C(=O)N[C@@]2(CCc4cc(OCCCC(F)(F)F)ccc42)C3)nn1 [II-103],IC50 (CYP2C19): > 20000 nM; IC50 (CYP2C9): > 20000 nM; CYP3A4 (MDZ) MBI judgement (Shifted IC) (CYP3A4 [3]): Negative (a case that Shifted IC was 1.0 or less was regarded as Negative); IC50 (CYP3A4 [4]): > 20000 nM; IC50 (CYP2D6): > 20000 nM; IC50 (CYP1A2): > 20000 nM
2.91 nM,89.7,–,–,CS(=O)(=O)CC(=O)Nc1c2c(nn1CCCOC(F)(F)F)C[C@@]1(CCOc3cc(OCC(F)(F)F)ccc31)NC2=O [II-121],Solubility [2]: >50 µM
–,82.6,> 50,–,Cc1ccc(-n2nc3c(c2NC(=O)CS(C)(=O)=O)C(=O)N[C@@]2(CCOc4cc(OCC(C)(F)F)ccc42)C3)nc1 [II-151],–
–,99.9,32.4,–,CS(=O)(=O)CC(=O)Nc1c2c(nn1-c1ccc(C(F)F)cc1)C[C@]1(CCc3cc(OCC(F)(F)F)ccc31)NC2=O [II-174],–
9.13 nM and < 1 nM,98.7,> 50,–,Cc1ccc(-n2nc3c(c2C(=O)NS(=O)(=O)C2CC2)C(=O)N[C@@]2(CCc4cc(OCC(F)(F)F)ccc42)C3)nc1 [II-202],–
–,104,45.1,–,CS(=O)(=O)CC(=O)Nc1c2c(nn1-c1ccc(F)c(F)c1)C[C@]1(CCOc3cc(CCC(F)(F)F)ccc31)NC2=O [II-225],–
0.224 nM,94.7,> 50,–,Cc1cc(-n2nc3c(c2NC(=O)CS(C)(=O)=O)C(=O)N[C@@]2(CCOc4cc(OCCCC(F)(F)F)ccc42)C3)no1 [II-233],–
1.26 nM,99.9,> 50,–,Cc1ccc(-n2nc3c(c2NC(=O)C2CS(=O)(=O)C2)C(=O)N[C@@]2(CCOc4cc(OCC(F)(F)F)ccc42)C3)nc1 [II-270],–
< 1 nM,102,> 50,–,CS(=O)(=O)CC(=O)Nc1c2c(nn1-c1ccc(F)cn1)C[C@]1(CCOc3cc(OCC(F)(F)F)ccc31)NC2=O [II-295],–

Structure (SMILES),IC50 (recombinant human MGAT2; [5]),Remaining rate (%) [1] [%],solubility at 16 h [2] [µM],IC50 (recombinant human MGAT2; [6]) [nM],other results
O=C1N[C@@]2(CCc3cc(OCCCC(F)(F)F)ccc32)Cc2nn(CCC3CC3)c(-c3nn[nH]n3)c21 [Compound I-24],–,78.2,–,8.82,Solubility [2]: >50 µM
